Source: patent US20250026770A1, “NOVEL BORONSOME FACILITATING DIAGNOSIS AND TREATMENT” (PEKING UNIVERSITY, priority 2021, published 2025)

System: DNA repair system
Assay: γ-h2ax staining
Description: In terms of integration of radiotherapy and chemotherapy, the preferred drug for encapsulation was Doxorubicin. […] Subsequently, we considered that if we could start from the principles of BNCT and selected individual drugs that disrupt the DNA replication process, its efficacy could be further enhanced. Therefore, a poly(ADP-ribose)polymerase (PARP) inhibitor (olaparib) was selected.

## O=C(c1cc(Cc2n[nH]c(=O)c3ccccc23)ccc1F)N1CCN(C(=O)C2CC2)CC1 [olaparib]
  Interference on the DNA repair system: verified its interference on the DNA repair system
